These results are taken from US20150232457A1, “CRYSTALLINE FORMS OF AFATINIB DI-MALEATE” (RATIOPHARM GMBH, priority 2011, published 2015).

Where “and” joins values, the source holds several entries; their conditions need not be identical. Equal entries are not always repeated. Where two headings read alike, the source gives them in different places.

The conditions of data set [1]: crystalline form of US 2005/0085495 (WO2005/037824); cited from earlier work.
Data set [2] can be described thus: Chemical stability at 30° C./65% relative humidity for 4 weeks (HPLC). Format: physicochemical. Conditions: stable means purity change less than about 1% by HPLC, solid state form maintained.
Data set [3] can be described thus: Stability and hygroscopicity at 40° C./75% relative humidity. Format: physicochemical. The text has this: The term “non-hygroscopic” as used herein, and unless stated otherwise, refers to crystalline Afatinib di-maleate uptaking/absorbing less than 0.2% (w/w) of atmospheric water to the crystalline Afatinib di-maleate in the below specified conditions, as measured by Karl-Fischer (KF) titration or by monitoring the weight increase during dynamic vapour sorption (DVS) test.

Data set [4] can be described thus: Investigation of hygroscopicity (dynamic vapour sorption) with Karl-Fischer titration of the product. Type of data set: physicochemical. The method, then: Karl-Fischer titration was carried out using […] from Merck (HX908240). The instructions of the manual were followed and each sample was analyzed in triplicate. […] Investigation of Hygroscopicity (Dynamic Vapour Sorption (DVS)) Instrument: SPSx-1μ, (Projekt Messtechnik) Temperature: 25° C. Humidity cycles: [table] […] Then the sample was analyzed by XRD diffraction.

In the case of `CN(C)C/C=C/C(=O)Nc1cc2c(Nc3ccc(F)c(Cl)c3)ncnc2cc1O[C@H]1CCOC1` [Afatinib di-maleate, (E)-4-Dimethylamino-but-2-enoic acid {4-(3-chloro-4-fluoro-phenylamino)-7-[(S)-(tetrahydro-furan-3-yl)oxy]-quinazolin-6-yl}-amide], in data set [1], the hygroscopicity entry is “limited hygroscopisity” and the polymorphic stability result is listed as “polymorphically stable”.
For `CN(C)C/C=C/C(=O)Nc1cc2c(Nc3ccc(F)c(Cl)c3)ncnc2cc1O[C@H]1CCOC1` [Form C, (E)-4-Dimethylamino-but-2-enoic acid {4-(3-chloro-4-fluoro-phenylamino)-7-[(S)-(tetrahydro-furan-3-yl)oxy]-quinazolin-6-yl}-amide], in data set [2], the chemical stability entry is on record as “chemically stable”.
Take `CN(C)C/C=C/C(=O)Nc1cc2c(Nc3ccc(F)c(Cl)c3)ncnc2cc1O[C@H]1CCOC1` [Form E, (E)-4-Dimethylamino-but-2-enoic acid {4-(3-chloro-4-fluoro-phenylamino)-7-[(S)-(tetrahydro-furan-3-yl)oxy]-quinazolin-6-yl}-amide]: the hygroscopicity entry in data set [3] is on record as “not hygroscopic”. Further, the polymorphic stability result in data set [3] (stable means less than 1% converts to any other solid state form) is reported as “polymorphically stable”. For the same compound, the “water content (% by weight), average” value in data set [4] (Karl-Fischer titration, average of triplicate, after DVS of Form A at 25° C.) was found to be 7.00 % by weight. The “water content (% by weight)” value in data set [4] (Karl-Fischer titration, single determinations of a triplicate, after DVS humidity cycles of Form A at 25° C., 0-95% relative humidity, listed as Afatinib di-maleate after DVS of Form A) was 6.95 % by weight and 7.15 % by weight and 6.90 % by weight. The “decomposition after DVS” value in data set [4] (obtained product analysed by 1H-NMR and HPLC) is on record as “no decomposition”.
